Source: patent publication US7314861B2, “Melanin-concentrating hormone analogs” (priority 2001, dated 2008)
Where a SMILES comes first, the peptide text is derived from it. Bridges are numbered along the chain shown (N, C = ends). [ ]: non-standard residue; d: D form. The star is where a group is joined. Pentanoyl(5-guanidino) = NC(N)=NCCCCC(=O)*

What was measured:
human MCH-1R = human MCH-1R (Homo sapiens, UniProt Q99705); assay: Aequorin bioluminescence functional assay, MCH-1R; settings: % Activation at 10 μM, aequorin functional assay
human MCH-R2 = human MCH-R2 (Homo sapiens, UniProt Q969V1); assay: Aequorin bioluminescence functional assay, MCH-2R; settings: for MCH-2R Activation %: % Activation at 10 μM, aequorin functional assay
Sequence of human MCH-R2 (Q969V1 whole entry): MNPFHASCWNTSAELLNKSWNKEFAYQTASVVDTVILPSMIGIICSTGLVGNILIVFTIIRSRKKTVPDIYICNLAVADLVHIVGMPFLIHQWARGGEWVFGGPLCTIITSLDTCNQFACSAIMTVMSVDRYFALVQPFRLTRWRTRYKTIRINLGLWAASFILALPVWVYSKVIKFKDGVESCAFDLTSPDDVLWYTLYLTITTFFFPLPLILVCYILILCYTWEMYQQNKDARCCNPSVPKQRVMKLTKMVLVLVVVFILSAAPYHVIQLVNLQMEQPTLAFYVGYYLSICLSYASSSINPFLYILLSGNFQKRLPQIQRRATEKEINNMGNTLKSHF
Method: The aequorin bioluminescence assay can be used to measure the activity of G protein-coupled receptors that couple through the Gα protein subunit family consisting of Gq and G11. Such coupling leads to phospholipase C activation, intracellular calcium mobilization and protein kinase C activation.
Following approximately 40 hours of expression the apo-aequorin in the cells was charged for 4 hours with coelenterazine (10 μM) under reducing conditions (300 μM reduced glutathione) in ECB buffer (140 mM NaCl, 20 mM KCl, 20 mM HEPES-NaOH [pH=7.4], 5 mM glucose, 1 mM MgCl2, 1 mM CaCl2, 0.1 mg/ml bovine serum albumin).
The cells were harvested, washed once in ECB medium and resuspended to 500,000 cells/ml. 100 μl of cell suspension (corresponding to 5×10^4 cells) was then injected into the test plate containing MCH or MCH analogs, and the integrated light emission was recorded over 30 seconds, in 0.5 second units. 20 μL of lysis buffer (0.1% final Triton X-100 concentration) was then injected and the integrated light emission recorded over 10 seconds, in 0.5 second units. The “fractional response” values for each well were calculated by taking the ratio of the integrated response to the initial challenge to the total integrated luminescence including the Triton X-100 lysis response.

Sequence of human MCH-1R (Q99705 whole entry): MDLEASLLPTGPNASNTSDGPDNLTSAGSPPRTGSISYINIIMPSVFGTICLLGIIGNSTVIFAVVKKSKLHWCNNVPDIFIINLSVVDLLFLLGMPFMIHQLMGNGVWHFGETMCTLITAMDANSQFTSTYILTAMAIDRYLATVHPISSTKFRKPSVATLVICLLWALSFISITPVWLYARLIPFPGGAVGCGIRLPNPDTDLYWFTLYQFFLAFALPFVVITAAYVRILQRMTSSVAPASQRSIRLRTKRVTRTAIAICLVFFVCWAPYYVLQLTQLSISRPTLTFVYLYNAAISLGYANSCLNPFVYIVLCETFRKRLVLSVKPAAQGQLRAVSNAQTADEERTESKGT

SMILES	MCH-1R Activation % (human MCH-1R; Table 3)	MCH-2R Activation % (human MCH-R2; Table 3)	other results
CSCC[C@@H]1NC(=O)[C@@H](NC(=O)[C@H](C)NC(=O)[C@H](CC(C)C)NC(=O)[C@H](CCSC)NC(=O)[C@H](CC(=O)O)NC(=O)[C@H](Cc2ccccc2)NC(=O)[C@@H](N)CC(=O)O)CSSC[C@@H](C(=O)N[C@@H](Cc2c[nH]c3ccccc23)C(=O)N[C@@H](CCC(N)=O)C(=O)N[C@H](C(=O)O)C(C)C)NC(=O)[C@@H]2CCCN2C(=O)[C@H](CCCNC(=N)N)NC(=O)[C@H](Cc2ccc(O)cc2)NC(=O)[C@H](C(C)C)NC(=O)[C@H](CCCNC(=N)N)NC(=O)CNC(=O)[C@H](CC(C)C)NC1=O [compound 46] (H-DFDMLACMLGRVYRPCWQV-OH; disulfide 7-16; N-terminus and C-terminus assumed)	81%	76%	–
CSCC[C@@H]1NC(=O)[C@@H](NC(=O)[C@H](CCCNC(=N)N)NC(=O)[C@H](CC(C)C)NC(=O)[C@H](CCSC)NC(=O)[C@H](CC(=O)O)NC(=O)[C@H](Cc2ccccc2)NC(=O)[C@@H](N)CC(=O)O)CSSC[C@@H](C(=O)N[C@@H](C)C(=O)N[C@@H](CCC(N)=O)C(=O)N[C@H](C(=O)O)C(C)C)NC(=O)[C@@H]2CCCN2C(=O)[C@H](CCCNC(=N)N)NC(=O)[C@H](Cc2ccc(O)cc2)NC(=O)[C@H](C(C)C)NC(=O)[C@H](CCCNC(=N)N)NC(=O)CNC(=O)[C@H](CC(C)C)NC1=O [compound 54] (H-DFDMLRCMLGRVYRPCAQV-OH; disulfide 7-16; N-terminus and C-terminus assumed)	100%	95%	–
CSCC[C@@H]1NC(=O)[C@@H](NC(=O)[C@H](CCCNC(=N)N)NC(C)=O)CSSC[C@@H](C(N)=O)NC(=O)[C@@H]2CCCN2C(=O)[C@H](CCCNC(=N)N)NC(=O)[C@H](Cc2ccc(O)cc2)NC(=O)[C@H](C(C)C)NC(=O)[C@H](CCCNC(=N)N)NC(=O)[C@H](C)NC(=O)[C@H](CC(C)C)NC1=O [compound 7]	–	–	MCH-1R Activation % (human MCH-1R; Table 1): 104%; MCH-2R Activation % (human MCH-R2; Table 1): 97%
CSCC[C@H](NC(=O)[C@H](CC(=O)O)NC(=O)[C@H](C)NC(=O)[C@@H](N)CC(=O)O)C(=O)N[C@@H](CC(C)C)C(=O)N[C@@H](CCCNC(=N)N)C(=O)N[C@H]1CSSC[C@@H](C(=O)N[C@@H](Cc2c[nH]c3ccccc23)C(=O)N[C@@H](CCC(N)=O)C(=O)N[C@H](C(=O)O)C(C)C)NC(=O)[C@@H]2CCCN2C(=O)[C@H](CCCNC(=N)N)NC(=O)[C@H](Cc2ccc(O)cc2)NC(=O)[C@H](C(C)C)NC(=O)[C@H](CCCNC(=N)N)NC(=O)CNC(=O)[C@H](CC(C)C)NC(=O)[C@H](CCSC)NC1=O [compound 42] (H-DADMLRCMLGRVYRPCWQV-OH; disulfide 7-16; N-terminus and C-terminus assumed)	97%	102%	–
CSCC[C@@H]1NC(=O)[C@@H](NC(=O)[C@H](CCCNC(=N)N)NC(C)=O)CSSC[C@@H](C(N)=O)NC(=O)[C@@H]2CCCN2C(=O)[C@H](CCCNC(=N)N)NC(=O)[C@H](Cc2ccc(O)cc2)NC(=O)[C@H](C(C)C)NC(=O)[C@H](CCCNC(=N)N)NC(=O)CNC(=O)[C@H](CC(C)C)NC1=O [compound 2]	–	–	MCH-1R Activation % (human MCH-1R; Table 2): 99%
CSCC[C@@H]1NC(=O)[C@@H](NC(=O)CCCCNC(=N)N)CSSC[C@@H](C(N)=O)NC(=O)[C@@H]2CCCN2C(=O)[C@H](CCCNC(=N)N)NC(=O)[C@H](Cc2ccc(O)cc2)NC(=O)[C@H](C(C)C)NC(=O)[C@H](CCCNC(=N)N)NC(=O)[C@@H](C)NC(=O)[C@H](CC(C)C)NC1=O [compound 34] ({Pentanoyl(5-guanidino)}-CML[dA]RVYRPC-NH2; disulfide 1-10)	–	–	selective activity at MCH-2R over MCH-1R (human MCH-R2; greater binding and/or activation at MCH-2R than at MCH-1R): selectively active
CSCC[C@@H]1NC(=O)[C@@H](NC(C)=O)CSSC[C@@H](C(N)=O)NC(=O)[C@@H]2CCCN2C(=O)[C@H](CCCNC(=N)N)NC(=O)[C@H](Cc2ccc(O)cc2)NC(=O)[C@H](C(C)C)NC(=O)[C@H](CCCNC(=N)N)NC(=O)CNC(=O)[C@H](CC(C)C)NC1=O [compound 3]	–	–	MCH-1R Activation % (human MCH-1R; Table 1): 6.5%
